Drawing on US10533006B2, “Nitrogen-containing heterocycle and carbocycle derivatives having TrkA inhibitory activity” (Shionogi & Co., Ltd., priority 2016, dated 2020), this text covers IC50 for 43 compounds.

Each structure is given as a SMILES string. Like-named read-outs stand apart in the source and are kept apart here. Where only a bound is given, the exact number is not on record here.

This experiment concerns the target T1, human TrkA (Homo sapiens, UniProt P04629).
T1 construct: purchased Lifetechnologies PV3144
The experiment is described as follows: Human TrkA inhibition assay. The format is biochemical. The conditions noted are these: human TrkA phosphorylation inhibition, ATP 500 μmol/L. As for the experimental part:
Seven point five L per well of human TrkA (PV3144, Lifetechnologies, final concentration: 1 nmol/L) suspended in the assay buffer (100 mmol/L 4-(2-hydroxyethyl)-1-piperazineethanesulfonic acid (HEPES), 10 mmol/L magnesium chloride, 0.003 vol % Brij-35, 0.004 vol % Tween20 and 1 mmol/L dithiothreitol (DTT)) was applied in a 384 well plate and the plate was pre-incubated for 15 min at room temperature with 0.4 μL of each compound (final concentration: 200 μmol/L-0.1 nM) dissolved in DMSO. Then, fluorescent substrate (FL-peptide 27, 760424, PerkinElmer, final concentration: 1.5 μmol/L) and ATP (final concentration 500 μmol/L) dissolved in the assay buffer was added in each well. After the incubation of 120 min at 37° C., fifteen μL of termination buffer (100 mmol/L HEPES, 40 mmol/L ethylenediaminetetraacetic acid (EDTA), 10 mmol/L magnesium chloride, 0.003 vol % Brij-35, 0.004 vol % Tween20, 1 mmol/L DTT and 0.16 vol % Coating Reagent 3) was added in each well to stop the enzyme reaction. Fluorescent intensities (FI) of phosphorylated and non-phosphorylated fluorescent substrates were measured by LabChip EZReader II (Caliper LifeSciences, Inc.), and conversion ratio (CR) was calculated by the following formula-1. The CR in the well applied with DMSO alone was used as a negative control and the CR in the well without applying TrkA was used as a positive control. The inhibitory effect of each compound on TrkA phosphorylation was calculated by the following formula-2. CR (%)=(FI of phosphorylated substrate/(FI of phosphorylated substrate+FI of non-phosphorylated substrate))×100 (Formula-1) Phosphorylation inhibition (%)=(1−(CR with compound treatment−CR of positive control)/(CR of negative control−CR of positive control))×100 (Formula-2)
IC50 values (nmol/L) were determined by the logistic regression using the inhibition data in 10 points of 3-fold dilution series at a compound concentration range of 2 μmol/L to 0.1 nmol/L, or 15 points of 3-fold dilution series at the range of 200 μmol/L to 0.04 nmol/L.

T1 sequence (P04629 33-796): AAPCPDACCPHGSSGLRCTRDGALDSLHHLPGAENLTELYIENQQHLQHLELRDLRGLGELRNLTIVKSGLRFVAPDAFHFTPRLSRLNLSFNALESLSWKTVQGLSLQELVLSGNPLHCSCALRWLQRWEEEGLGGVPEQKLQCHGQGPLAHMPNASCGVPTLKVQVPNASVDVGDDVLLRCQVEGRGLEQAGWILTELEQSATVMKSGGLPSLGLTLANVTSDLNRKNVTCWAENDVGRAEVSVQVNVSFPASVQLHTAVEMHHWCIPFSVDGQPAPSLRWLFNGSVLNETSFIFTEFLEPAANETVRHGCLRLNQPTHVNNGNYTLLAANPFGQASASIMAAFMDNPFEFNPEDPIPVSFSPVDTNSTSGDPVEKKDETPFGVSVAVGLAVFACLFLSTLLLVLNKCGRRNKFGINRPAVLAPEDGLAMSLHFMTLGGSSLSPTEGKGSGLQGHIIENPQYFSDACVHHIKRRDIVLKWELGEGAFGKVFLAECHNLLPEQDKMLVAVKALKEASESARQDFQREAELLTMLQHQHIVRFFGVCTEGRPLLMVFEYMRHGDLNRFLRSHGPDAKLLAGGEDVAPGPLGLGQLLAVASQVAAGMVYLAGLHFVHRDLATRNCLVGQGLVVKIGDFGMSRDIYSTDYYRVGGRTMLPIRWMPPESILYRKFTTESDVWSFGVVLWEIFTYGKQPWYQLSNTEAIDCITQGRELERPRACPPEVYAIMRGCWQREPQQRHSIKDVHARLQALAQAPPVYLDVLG

As to `COCCN1C[C@@H](NC(=O)Nc2c(C)c(-c3cnc(OC)c(C(=O)NC4CCS(=O)(=O)CC4)c3)nn2-c2ccccc2)[C@H](c2ccccc2)C1` (racemic) [Compound I-79], under “read-out: IC50_nM”, the IC50 is less than 100 nM.

With `COCC[C@@H]1C[C@@H](NC(=O)Nc2c(C)c(-c3ccc(OC)nc3)nn2-c2ccccc2)[C@H](c2ccnc(F)c2)N1C` [Compound I-175], for the setting “read-out: IC50_nM”, the IC50 was less than 100 nM.

`COCCN1C[C@@H](NC(=O)Nc2c(C)c(-c3cnc(OC)c(C(=O)NC[C@@H](C)O)c3)nn2-c2ccccc2)[C@H](c2ccccc2)C1` [Compound I-82]: the IC50 (read-out: IC50_nM) was less than 100 nM.

On to `COCCN1C[C@@H](NC(=O)Nc2c(C)c(-c3ccc(C(=O)NO)nc3)nn2-c2ccccc2)[C@H](c2ccccc2)C1` (racemic) [Compound I-150], for which the IC50 (read-out: IC50_nM) was less than 100 nM.

Turning to `COCCN1C[C@@H](NC(=O)Nc2c(C)c(-c3ccnc(N=S(C)(C)=O)c3)nn2-c2ccccc2)[C@H](c2ccccc2)C1` (racemic) [Compound I-96], the IC50 (read-out: IC50_nM) was less than 100 nM.

As for `COCCN1C[C@@H](NC(=O)Nc2c(C)c(-c3ccnc(C(=O)NC[C@@H](C)O)c3)nn2-c2ccccc2)[C@H](c2ccccc2)C1` [Compound I-75], under “read-out: IC50_nM”, the IC50 is less than 100 nM.

As for `COCCN1C[C@@H](NC(=O)Nc2c(C)c(-c3cnc(OCC(F)F)c(C(=O)NC4CCOCC4)c3)nn2-c2ccccc2)[C@H](c2ccccc2)C1` (racemic) [Compound I-142], the IC50 (read-out: IC50_nM) was less than 100 nM.

As to `COCC[C@@H]1C[C@@H](NC(=O)Nc2c(C)c(-c3cnc(OC)nc3)nn2-c2ccccc2)[C@H](c2ccnc(F)c2)C1` [Compound I-165], the IC50 (read-out: IC50_nM) was less than 100 nM.

With `COCCN1C[C@@H](NC(=O)Nc2c(C)c(-c3cnc4c(c3)c(C)nn4C)nn2-c2ccccc2)[C@H](c2ccccc2)C1` (racemic) [Compound I-89], for the setting “read-out: IC50_nM”, the IC50 is less than 100 nM.

With `Cc1c(-c2cnn(C)c2)nn(-c2ccccc2)c1NC(=O)N[C@@H]1CN(CCOC(F)(F)F)C[C@H]1c1ccnc(F)c1` (racemic) [Compound I-20], the IC50 (read-out: IC50_nM) was less than 100 nM.

Regarding `CCNC(=O)c1cc(-c2nn(-c3ccccc3)c(NC(=O)N[C@@H]3CN(CCOC)C[C@H]3c3ccccc3)c2C)cn(C)c1=O` (racemic) [Compound I-54], for the setting “read-out: IC50_nM”, the IC50 was less than 100 nM.

With `COCC[C@@H]1C[C@@H](NC(=O)Nc2c(C)c(-c3ccc4c(cnn4C)c3)nn2-c2ccccc2)[C@H](c2ccccc2)C1` [Compound I-21], for the setting “read-out: IC50_nM”, the IC50 is less than 100 nM.

Take `CNC(=O)c1cc(-c2nn(-c3ccccc3)c(NC(=O)N[C@@H]3CN(CCOC)C[C@H]3c3ccccc3)c2C)cn(C)c1=O` (racemic) [Compound I-52]: the IC50 (read-out: IC50_nM) is less than 100 nM.

Regarding `CNC(=O)c1cc(-c2nn(-c3ccccc3)c(NC(=O)N[C@@H]3C[C@@H](CCOC)C[C@H]3c3ccnc(F)c3)c2C)cnc1OC` [Compound I-145], the IC50 (read-out: IC50_nM) was less than 100 nM.

For `COCCN1C[C@@H](NC(=O)Nc2c(C)c(-c3cc(C(=O)NC4CC(F)(F)C4)c(=O)n(C)c3)nn2-c2ccccc2)[C@H](c2ccccc2)C1` (racemic) [Compound I-113], the IC50 (read-out: IC50_nM) is less than 100 nM.

As to `COCCN1C[C@@H](NC(=O)Nc2c(C)c(-c3ccc(C(=O)NC4CCOCC4)nc3)nn2-c2ccccc2)[C@H](c2ccccc2)C1` (racemic) [Compound I-41], where the note is “read-out: IC50_nM”, the IC50 is less than 100 nM.

In the case of `COCCN1C[C@@H](NC(=O)Nc2c(C)c(-c3cnc4c(c3)ncn4C)nn2-c2ccccc2)[C@H](c2ccccc2)C1` (racemic) [Compound I-51], the IC50 (read-out: IC50_nM) was less than 100 nM.

Consider `COCCN1C[C@@H](NC(=O)Nc2c(C)c(-c3cnn(C)c3)nn2-c2ccccc2)[C@H](c2ccnc(Cl)c2)C1` (racemic) [Compound I-1], for which the IC50 (read-out: IC50_nM) was less than 100 nM.

In the case of `COCCN1C[C@@H](NC(=O)Nc2c(C)c(-c3cnc4nc(C)oc4c3)nn2-c2ccccc2)[C@H](c2ccccc2)C1` (racemic) [Compound I-34], the IC50 (read-out: IC50_nM) is less than 100 nM.

Turning to `COCC[C@@H]1C[C@@H](NC(=O)Nc2c(C)c(-c3cc(C(=O)OC)c(=O)n(C)c3)nn2-c2ccccc2)[C@H](c2ccccc2)C1` [Compound I-116], the IC50 (read-out: IC50_nM) is less than 100 nM.

On to `COCCN1C[C@@H](NC(=O)Nc2c(C)c(-c3cnc4c(c3)nc(CO)n4C)nn2-c2ccccc2)[C@H](c2ccccc2)C1` (racemic) [Compound I-97], for which the IC50 (read-out: IC50_nM) was less than 100 nM.

Regarding `COCCN1C[C@@H](NC(=O)Nc2c(C)c(-c3ccc(C(=O)N(C)C)nc3)nn2-c2ccccc2)[C@H](c2ccccc2)C1` (racemic) [Compound I-36], the IC50 (read-out: IC50_nM) is less than 100 nM.

For `COCCN1C[C@@H](NC(=O)Nc2c(C)c(-c3ccnc(C(=O)N[C@H]4CCOC4)c3)nn2-c2ccccc2)[C@H](c2ccccc2)C1` [Compound I-87], where the note is “read-out: IC50_nM”, the IC50 was less than 100 nM.

Take `CCNC(=O)c1cc(-c2nn(-c3ccccc3)c(NC(=O)N[C@@H]3CN(CCOC)C[C@H]3c3ccccc3)c2C)cnc1OCC` (racemic) [Compound I-129]: under “read-out: IC50_nM”, the IC50 was less than 100 nM.

Regarding `COCCN1C[C@@H](NC(=O)Nc2c(C)c(-c3cnc(OC)c(C(=O)NC(=O)N(C)C)c3)nn2-c2ccccc2)[C@H](c2ccccc2)C1` (racemic) [Compound I-158], for the setting “read-out: IC50_nM”, the IC50 was less than 100 nM.

Regarding `COCCN1C[C@@H](NC(=O)Nc2c(C)c(-c3cnc4c(c3)c(C(=O)OC)nn4C)nn2-c2ccccc2)[C@H](c2ccccc2)C1` (racemic) [Compound I-64], the IC50 (read-out: IC50_nM) was less than 100 nM.

Turning to `COCCN1C[C@@H](NC(=O)Nc2c(C)c(-c3cc(C(=O)N[C@H]4CCOC4)c(=O)n(C)c3)nn2-c2ccccc2)[C@H](c2ccccc2)C1` (racemic) [Compound I-111], the IC50 (read-out: IC50_nM) was less than 100 nM.

Take `COCCN1C[C@@H](NC(=O)Nc2c(C)c(-c3cnn(C)c3)nn2-c2ccccc2)[C@H](c2cnc(Cl)c(F)c2)C1` (racemic) [Compound I-16]: the IC50 (read-out: IC50_nM) is less than 100 nM.

`COCCN1C[C@@H](NC(=O)Nc2c(C)c(-c3ccnc(C(=O)NOC)c3)nn2-c2ccccc2)[C@H](c2ccccc2)C1` (racemic) [Compound I-100]: the IC50 (read-out: IC50 value) came out at 6.8 nM.

For `COCC[C@@H]1C[C@@H](NC(=O)Nc2c(C)c(-c3ccc(=O)[nH]c3)nn2-c2ccccc2)[C@H](c2ccccc2)C1` [Compound I-23], where the note is “read-out: IC50_nM”, the IC50 was less than 100 nM.

With `COCCN1C[C@@H](NC(=O)Nc2c(C)c(-c3cnc4nc(C)nn4c3)nn2-c2ccccc2)[C@H](c2ccccc2)C1` (racemic) [Compound I-32], for the setting “read-out: IC50_nM”, the IC50 was less than 100 nM.

For `CNC(=O)c1cc(-c2nn(-c3ccccc3)c(NC(=O)N[C@@H]3C[C@@H](CCOC)C[C@H]3c3ccccc3)c2C)cn(C)c1=O` [Compound I-117], the IC50 (read-out: IC50_nM) was less than 100 nM.

Consider `COCCN1C[C@@H](NC(=O)Nc2c(C)c(-c3ccnc(C(=O)N[C@H]4CC[C@H](O)CC4)c3)nn2-c2ccccc2)[C@H](c2ccccc2)C1` [Compound I-74], for which the IC50 (read-out: IC50_nM) is less than 100 nM.

Take `CCOc1ncc(-c2nn(-c3ccccc3)c(NC(=O)N[C@@H]3CN(CCOC)C[C@H]3c3ccccc3)c2C)cc1C(=O)NC1CCOCC1` (racemic) [Compound I-140]: the IC50 (read-out: IC50_nM) is less than 100 nM.

In the case of `COCCN1C[C@@H](NC(=O)Nc2c(C)c(-c3ccc(C(=O)NCC(F)(F)F)nc3)nn2-c2ccccc2)[C@H](c2ccccc2)C1` (racemic) [Compound I-12], the IC50 (read-out: IC50_nM) was less than 100 nM.

In the case of `CCOC(=O)NC(=O)c1cc(-c2nn(-c3ccccc3)c(NC(=O)N[C@@H]3CN(CCOC)C[C@H]3c3ccccc3)c2C)cnc1OC` (racemic) [Compound I-157], the IC50 (read-out: IC50_nM) was less than 100 nM.

Take `Cc1c(-c2ccc3c(cnn3C)c2)nn(-c2ccccc2)c1NC(=O)N[C@@H]1C[C@@H](CCOC(F)(F)F)C[C@H]1c1ccc(F)c(F)c1` [Compound I-11]: under “read-out: IC50_nM”, the IC50 was less than 100 nM.

Regarding `COCCN1C[C@@H](NC(=O)Nc2c(C)c(-c3cnc(OC)c(C(=O)NC4CS(=O)(=O)C4)c3)nn2-c2ccccc2)[C@H](c2ccccc2)C1` (racemic) [Compound I-101], under “read-out: IC50_nM”, the IC50 was less than 100 nM.

Turning to `COCCN1C[C@@H](NC(=O)Nc2c(C)c(-c3cnc(OC)c(C(N)=O)c3)nn2-c2ccccc2)[C@H](c2ccccc2)C1` (racemic) [Compound I-161], the IC50 (read-out: IC50_nM) is less than 100 nM.

With `COCC[C@@H]1C[C@@H](NC(=O)Nc2c(C)c(-c3cnc(N4CC(O)C4)nc3)nn2-c2ccccc2)[C@H](c2ccnc(F)c2)C1` [Compound I-166], the IC50 (read-out: IC50_nM) was less than 100 nM.

As for `COCCN1C[C@@H](NC(=O)Nc2c(C)c(-c3cnc4c(cnn4C)c3)nn2-c2ccccc2)[C@H](c2ccccc2)C1` (racemic) [Compound I-17], the IC50 (read-out: IC50_nM) is less than 100 nM.

As to `COCCN1C[C@@H](NC(=O)Nc2c(C)c(-c3cc(C(=O)NC4CCS(=O)(=O)CC4)c(=O)n(C)c3)nn2-c2ccccc2)[C@H](c2ccccc2)C1` (racemic) [Compound I-110], the IC50 (read-out: IC50_nM) is less than 100 nM.

For `COCCN1C[C@@H](NC(=O)Nc2c(C)c(-c3cnc4nccnc4c3)nn2-c2ccccc2)[C@H](c2ccccc2)C1` (racemic) [Compound I-135], the IC50 (read-out: IC50_nM) is less than 100 nM.
